Legend:
[1] = normal adults; cited from earlier work
albumin = albumin (Homo sapiens, UniProt P02768); test: Competitive displacement of indoxyl sulfate by bilirubin in model uremic plasma; format: binding; details: uremic plasma (BUN about 55 mg/dL, albumin 3.82 g/dL) with 2 mMolar Bil-DT, 12 hours at 37° C.; control without Bil-DT 0.65 μg/ml
Method: Two samples of uremic plasma (blood urea nitrogen (BUN) of about 55 mg/dL, albumin concentration of 3.82 g/dL) including indoxyl sulfate were incubated for 12 hours at 37° C. One sample also included 2 mMolar bilirubin ditauride (Bil-DT).

albumin, sequence (P02768 25-609): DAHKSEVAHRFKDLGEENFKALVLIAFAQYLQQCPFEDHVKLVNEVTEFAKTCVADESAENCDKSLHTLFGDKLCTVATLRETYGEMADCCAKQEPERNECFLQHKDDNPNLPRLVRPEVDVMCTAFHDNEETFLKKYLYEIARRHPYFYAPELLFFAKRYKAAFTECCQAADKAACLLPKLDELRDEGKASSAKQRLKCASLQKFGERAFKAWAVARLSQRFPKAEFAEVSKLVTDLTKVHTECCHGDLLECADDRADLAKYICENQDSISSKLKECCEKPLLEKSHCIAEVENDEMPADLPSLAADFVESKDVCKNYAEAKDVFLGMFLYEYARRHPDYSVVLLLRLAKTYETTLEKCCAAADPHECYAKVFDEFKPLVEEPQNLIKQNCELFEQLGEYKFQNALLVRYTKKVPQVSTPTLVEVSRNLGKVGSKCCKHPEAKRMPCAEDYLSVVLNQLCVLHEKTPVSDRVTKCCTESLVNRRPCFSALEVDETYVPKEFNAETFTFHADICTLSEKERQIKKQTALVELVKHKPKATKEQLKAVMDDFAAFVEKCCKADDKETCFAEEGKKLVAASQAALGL

Row | Molecule | non-toxic level of serum bilirubin concentration [1] | free indoxyl sulfate concentration (albumin) [µg/mL]
1 | C=CC1=C(C)/C(=C/c2[nH]c(Cc3[nH]c(/C=C4\NC(=O)C(C)=C4C=C)c(C)c3CCC(=O)O)c(CCC(=O)O)c2C)NC1=O [Bilirubin, bilirubin] | about 10 mg/dL | –
2 | bilirubin ditauride [Bil-DT] | – | 0.93

From patent US8419943B2, “Method of removing protein-bound deleterious substances during extracorporeal renal replacement treatment” (Fresenius Medical Care Holdings, Inc., priority 2008, dated 2013)
